US20260344668A1, “PHENYLPYRAZOLE COMPOUND, AND PLANT DISEASE CONTROL METHOD” (priority 2022, published 2026)

Columns and labels:
[1] = test system: Phakopsora pachyrhizi; experiment: Test Example 11 Control Test Against Soybean Rust (pot test, spraying before inoculation); assay type: in vivo; settings: 200 ppm foliage spray, soybeans (Kurosengoku), inoculated after 2 to 5 days
Procedure, shortened: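 Soybeans (cv. Kurosengoku), grown 10–14 days in pots, foliar-sprayed with formulated compound at 200 ppm, inoculated 2–5 days later with Phakopsora pachyrhizi spores. Kept humid 1–2 days at 23 °C day/20 °C night, then greenhouse 12 days; lesion area scored against unsprayed plants.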

[2] = test system: Phakopsora pachyrhizi; experiment: Test Example 15 Control Test Against Soybean Rust Fungus (spore germination, 96 well titer plate); assay type: cell-based; settings: treatment concentration 1 ppm, 23° C., several hours
Procedure, shortened: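 Compound in DMSO was added to an aqueous Phakopsora pachyrhizi spore suspension (1.0×10^4/mL) and incubated several hours at 23° C. Germinated spores were counted relative to DMSO-only wells.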

[3] = test system: soybean rust fungus (Phakopsora pachyrhizi) having an amino acid substitution of F129L in a mitochondrial cytochrome b protein; experiment: Test Example 7 Control Test Against Soybean Rust (leaf disk); assay type: in vivo; settings: 200 ppm, 10 μL per soybean leaf disk (cultivar: Kurosengoku), inoculated after 1 day
Procedure, shortened: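 Soybean (Kurosengoku) leaf disks of 1 cm on 1.2% agar were sprayed with compound in a DMSO/xylene/Sorpol emulsion diluted in water to a prescribed concentration. One day later they were spray-inoculated with F129L cytochrome b mutant P. pachyrhizi spores (1.0×10^5/mL) and kept at 23 °C, 60% humidity, 6 h light, for about 13 days. Lesion area was compared with DMSO-treated disks.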

[4] = test system: Cochliobolus miyabeanus; experiment: Test Example 6 Control Test Against Rice Brown Spot Fungus (96 well titer plate growth); assay type: cell-based; settings: 1 μL of 150 ppm DMSO solution + 150 μL YB liquid medium, 23° C., 3 days, absorbance at 550 nm
Experimental: (§1) The term of “non-treated well” in Test Example 4, Test Example 5, and Test Example 6 represents a well wherein a test was carried out under the same conditions as those described in each Test Example except for dispensing DMSO instead of a diluted solution with DMSO comprising the Present compound. Also, the term of “non-treated” in Test Examples 15 to 17 represents a test which was carried out under the same conditions as those described in each Test Example except for dispensing DMSO instead of a diluted solution with DMSO comprising the Present compound. Also, the term of “non-treated leaf disk” in Test Example 7 represents a leaf disk wherein a test was carried out under the same conditions as those described in the Test Example except for dispensing DMSO instead of a diluted solution with DMSO comprising the Present compound. Also, the term of “non-treated” in Test Example 10 and Test Example 11 means that a diluted solution with water of a formulation comprising the Present compound was not sprayed.
Each of the Present compound 17, 33, 36, 37, 39, 40, 41, 42, 43, 44, 48, 49, 50, 51, 52, 53, 62, 68, 69, 70, 71, 76, 77, 79, 80, 81, 82, 83, 84, or 97 was diluted with DMSO to obtain a diluted solution containing 150 ppm of each compound, and 1 μL of the diluted solution was dispensed into a titer plate (96 well), and thereto was then dispensed 150 μL of a YB liquid medium to which spores of Cochliobolus miyabeanus were inoculated in advance. This plate was cultured at 23° C. for 3 days, thereby allowing Cochliobolus miyabeanus to undergo proliferation, and the absorbance at 550 nm of each well of the titer plate was then measured to determine a degree of growth of Cochliobolus miyabeanus. As a result, the degree of growth in the well treated with each of the above Present compounds was 50% or less relative to the degree of growth in the non-treated well.

[5] = test system: Cladosporium carpophilum; experiment: Test Example 5 Control Test Against Peach Scab Fungus (96 well titer plate growth); assay type: cell-based; settings: 1 μL of 150 ppm DMSO solution + 150 μL PDB medium, 18° C., 5 days, absorbance at 550 nm
Experimental: as §1
Each of the Present compound 79, 80, 81, 89, 92, 93, 96, or 99 was diluted with DMSO to obtain a diluted solution containing 150 ppm of each compound, and 1 μL of the diluted solution was dispensed into a titer plate (96 well), and thereto was then dispensed 150 μL of a potato dextrose broth medium (PDB medium) to which spores of Cladosporium carpophilum were inoculated in advance. This plate was cultured at 18° C. for 5 days, thereby allowing Cladosporium carpophilum to undergo proliferation, and the absorbance at 550 nm of each well of the titer plate was then measured to determine a degree of growth of Cladosporium carpophilum. As a result, the degree of growth in the well treated with each of the above Present compound was 50% or less relative to the degree of growth in the non-treated well.

| SMILES | lesion area relative to the lesion area in the non-treated soybeans [1] | number of germinated spores relative to the non-treated well [2] | lesion area relative to the lesion area of non-treated leaf disk [3] | degree of growth relative to the degree of growth in the non-treated well [4] | degree of growth relative to the degree of growth in the non-treated well [5] |
| --- | --- | --- | --- | --- | --- |
| Cc1ccc(-c2ccn(S(=O)(=O)c3cccs3)n2)cc1 [compound 43] | ≤ 30% | ≤ 50% | ≤ 30% | ≤ 50% | – |
| O=[N+]([O-])c1ccc(-c2ccn(S(=O)(=O)c3cccs3)n2)cc1 [compound 44] | ≤ 30% | ≤ 50% | ≤ 30% | ≤ 50% | – |
| O=S(=O)(c1cccnc1)n1ccc(-c2ccc(Br)c(F)c2)n1 [compound 53] | ≤ 30% | ≤ 50% | ≤ 30% | ≤ 50% | – |
| O=S(=O)(c1cccs1)n1ccc(-c2ccc3nsnc3c2)n1 [compound 68] | ≤ 30% | ≤ 50% | ≤ 30% | ≤ 50% | – |
| Cc1ccc(-c2ccn(S(=O)(=O)c3ccco3)n2)cc1F [compound 69] | ≤ 30% | ≤ 50% | ≤ 30% | ≤ 50% | – |
| Cc1ccc(-c2ccn(S(=O)(=O)c3ccoc3)n2)cc1F [compound 70] | ≤ 30% | ≤ 50% | ≤ 30% | ≤ 50% | – |
| Cc1ccc(-c2ccn(S(=O)(=O)c3cccs3)n2)cc1F [compound 71] | ≤ 30% | ≤ 50% | ≤ 30% | ≤ 50% | – |
| Cc1ccc(-c2ccn(S(=O)(=O)c3ccco3)n2)cc1 [compound 76] | ≤ 30% | ≤ 50% | ≤ 30% | ≤ 50% | – |
| Cc1ccc(-c2ccn(S(=O)(=O)c3ccoc3)n2)cc1 [compound 77] | ≤ 30% | ≤ 50% | ≤ 30% | ≤ 50% | – |
| O=S(=O)(c1ccco1)n1ccc(-c2ccc(Cl)cc2)n1 [compound 79] | ≤ 30% | ≤ 50% | ≤ 30% | ≤ 50% | ≤ 50% |
| O=S(=O)(c1ccoc1)n1ccc(-c2ccc(Cl)cc2)n1 [compound 80] | ≤ 30% | ≤ 50% | ≤ 30% | ≤ 50% | ≤ 50% |
| O=S(=O)(c1ccco1)n1ccc(-c2ccc(I)cc2)n1 [compound 82] | ≤ 30% | ≤ 50% | ≤ 30% | ≤ 50% | – |
| O=S(=O)(c1ccoc1)n1ccc(-c2ccc(I)cc2)n1 [compound 83] | ≤ 30% | ≤ 50% | ≤ 30% | ≤ 50% | – |
| O=S(=O)(c1cccs1)n1ccc(-c2ccc(I)cc2)n1 [compound 84] | ≤ 30% | ≤ 50% | ≤ 30% | ≤ 50% | – |
| O=S(=O)(c1ccoc1)n1ccc(-c2ccc(F)cc2)n1 [compound 89] | ≤ 30% | ≤ 50% | ≤ 30% | – | ≤ 50% |
| O=S(=O)(c1ccoc1)n1ccc(-c2ccc(F)c(F)c2)n1 [compound 92] | ≤ 30% | ≤ 50% | ≤ 30% | – | ≤ 50% |
| O=S(=O)(c1cccs1)n1ccc(-c2ccc(F)c(F)c2)n1 [compound 93] | ≤ 30% | ≤ 50% | ≤ 30% | – | ≤ 50% |
| O=S(=O)(c1cccs1)n1ccc(-c2cccc(F)c2)n1 [compound 96] | ≤ 30% | ≤ 50% | ≤ 30% | – | ≤ 50% |
| Cc1ccc(-c2ccn(S(=O)(=O)c3cccnc3)n2)cc1F [compound 97] | ≤ 30% | ≤ 50% | ≤ 30% | ≤ 50% | – |
| Cc1ccc(-c2ccn(S(=O)(=O)c3cccnc3)n2)cc1 [compound 99] | ≤ 30% | ≤ 50% | ≤ 30% | – | ≤ 50% |
